In the NIST ThermoML archive (doi:10.1021/je900596d):
Numbers after ± are expanded uncertainties.

Details: 323.37 K, Liquid, Vibrating tube method

FC(F)=C(F)C(F)(F)F [hexafluoropropene]
Details	mass density [kg/m3]
3190.6 kPa	1208.65 ± 1.2
3233.2 kPa	1209.26 ± 1.2
3274 kPa	1209.98 ± 1.2
3319.3 kPa	1210.67 ± 1.2
3363.9 kPa	1211.37 ± 1.2
3409 kPa	1212.2 ± 1.2
3453.1 kPa	1212.75 ± 1.2
3494.3 kPa	1213.56 ± 1.2
3536.1 kPa	1214.13 ± 1.2
3576.1 kPa	1214.83 ± 1.3
3614.3 kPa	1215.37 ± 1.2
3655.5 kPa	1215.99 ± 1.3
3696.8 kPa	1216.59 ± 1.2
3734.8 kPa	1217.22 ± 1.2
3774.4 kPa	1217.9 ± 1.2
3814.2 kPa	1218.51 ± 1.3
3853.1 kPa	1219.11 ± 1.2
3890.4 kPa	1219.71 ± 1.2
3929.4 kPa	1220.24 ± 1.3
3968.3 kPa	1220.84 ± 1.3
4008.7 kPa	1221.41 ± 1.3
4049.2 kPa	1222.01 ± 1.2
4086.5 kPa	1222.57 ± 1.3
4125.9 kPa	1223.19 ± 1.3
4203.9 kPa	1224.27 ± 1.2
4242.8 kPa	1224.81 ± 1.3
4283.2 kPa	1225.52 ± 1.3
4323.7 kPa	1226 ± 1.3
4365 kPa	1226.67 ± 1.3
4405.1 kPa	1227.17 ± 1.3
4444.7 kPa	1227.66 ± 1.2
4485 kPa	1228.31 ± 1.3
4510.8 kPa	1228.65 ± 1.3
4561.5 kPa	1229.42 ± 1.3
4618.8 kPa	1230.22 ± 1.3
4671.5 kPa	1230.85 ± 1.3
4727.5 kPa	1231.69 ± 1.3
4782 kPa	1232.28 ± 1.3
4834 kPa	1233.09 ± 1.3
4887.1 kPa	1233.93 ± 1.3
4938.4 kPa	1234.66 ± 1.3
4991 kPa	1235.13 ± 1.3
5040.4 kPa	1235.89 ± 1.3
5097.9 kPa	1236.56 ± 1.3
5155.7 kPa	1237.37 ± 1.3
5211.3 kPa	1238.02 ± 1.3
5267.7 kPa	1238.8 ± 1.3
5326.8 kPa	1239.64 ± 1.3
5386 kPa	1240.28 ± 1.3
5440.9 kPa	1241.12 ± 1.3
5498.8 kPa	1241.79 ± 1.3
5518.2 kPa	1242.1 ± 1.3
5575.5 kPa	1242.7 ± 1.3
5631.7 kPa	1243.39 ± 1.3
5693 kPa	1244.16 ± 1.3
5751.8 kPa	1244.98 ± 1.3
5808.1 kPa	1245.67 ± 1.3
5864.8 kPa	1246.37 ± 1.3
5921.9 kPa	1247.09 ± 1.3
5977.9 kPa	1247.78 ± 1.3
6035 kPa	1248.49 ± 1.3
6091.4 kPa	1249 ± 1.3
6150.7 kPa	1249.77 ± 1.3
6208.1 kPa	1250.43 ± 1.3
6265.4 kPa	1251.23 ± 1.3
6323.2 kPa	1251.69 ± 1.3
6380.6 kPa	1252.41 ± 1.3
